Literature values, collected in PMC8549773 (Chemical Science, 2021).

System: GCase
Conditions: administered to rats

OC[C@H]1O[C@@H](F)[C@H](F)[C@@H](O)[C@@H]1O [2FGlcF, 2-deoxy-2-fluoro-β-D-glucosyl fluoride]
GCase inactivation in organs: inactivates GCase in all organs, including the brain
